In PubChem BioAssay AID330 (DTP/NCI, 2004):
“And” between values parts separate entries of the source, which are not always exact repeats. Equal entries are not always repeated. Inconclusive results and toxic doses are left out.

Test system: P388 leukemia ip, CD2F1 mice, survival T/C
Assay: NCI In Vivo Anticancer Drug Screen. Data for tumor model P388 Leukemia (intraperitoneal) in CD2F1 (CDF1) mice
Settings: endpoint: median survival time, higher = longer survival
Outline: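 Mice carrying the transplanted tumor received test compound or vehicle. Survival was recorded in each group, and the value is the treated-group measurement divided by that of the vehicle-treated control group.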

[1] = dose: 12.5 mg/kg/injection, schedule: Q04DX003 (ip), vehicle: saline with Tween-80
[2] = dose: 25.0 mg/kg/injection, schedule: Q04DX003 (ip), vehicle: saline with Tween-80
[3] = dose: 50.0 mg/kg/injection, schedule: Q04DX003 (ip), vehicle: saline with Tween-80
[4] = dose: 100.0 mg/kg/injection, schedule: Q01DX009 (ip), vehicle: saline with Tween-80
[5] = dose: 200.0 mg/kg/injection, schedule: Q01DX009 (ip), vehicle: saline with Tween-80
[6] = dose: 25.0 mg/kg/injection, schedule: Q01DX009 (ip), vehicle: water
[7] = dose: 50.0 mg/kg/injection, schedule: Q01DX009 (ip), vehicle: water
[8] = dose: 100.0 mg/kg/injection, schedule: Q01DX009 (ip), vehicle: water
[9] = dose: 200.0 mg/kg/injection, schedule: Q01DX009 (ip), vehicle: water

## Nc1nc2c(c(=O)[nH]1)NC(CCNc1ccc(C(=O)O)cc1)CN2 (stereo not drawn)
dose: 12.5 mg/kg/injection, schedule: Q01DX009 (ip), vehicle: saline with Tween-80
  T/C: 104 % of control
[1]
  T/C: 90 % of control
dose: 25.0 mg/kg/injection, schedule: Q01DX009 (ip), vehicle: saline with Tween-80
  T/C: 113 % of control
[2]
  T/C: 95 % of control
[3]
  T/C: 113 % of control

## CC1(C)NC(=O)N(CN2CCOCC2)C1=O
dose: 30.0 mg/kg/injection, schedule: Q01DX005 (ip), vehicle: saline
  T/C: 104 % of control
dose: 60.0 mg/kg/injection, schedule: Q01DX005 (ip), vehicle: saline
  T/C: 109 % of control and 111 % of control and 93 % of control
dose: 120.0 mg/kg/injection, schedule: Q01DX005 (ip), vehicle: saline
  T/C: 106 % of control and 119 % of control and 123 % of control
dose: 240.0 mg/kg/injection, schedule: Q01DX005 (ip), vehicle: saline
  T/C: 106 % of control and 116 % of control and 120 % of control

## CCCNC(=O)ON1C(=O)C2C3C=CC(C3)C2C1=O (stereo not drawn)
dose: 6.25 mg/kg/injection, schedule: Q01DX005 (ip), vehicle: Klucel (hydroxypropylcellulose) (HPC)
  T/C: 96 % of control
dose: 12.5 mg/kg/injection, schedule: Q01DX005 (ip), vehicle: Klucel (hydroxypropylcellulose) (HPC)
  T/C: 104 % of control
dose: 25.0 mg/kg/injection, schedule: Q01DX005 (ip), vehicle: Klucel (hydroxypropylcellulose) (HPC)
  T/C: 96 % of control

## c1ccc2c(c1)CCc1c(-c3ccncc3)n[nH]c1-2
dose: 12.5 mg/kg/injection, schedule: Q01DX009 (ip), vehicle: other
  T/C: 108 % of control
dose: 25.0 mg/kg/injection, schedule: Q01DX009 (ip), vehicle: other
  T/C: 123 % of control
dose: 50.0 mg/kg/injection, schedule: Q01DX009 (ip), vehicle: other
  T/C: 106 % of control
dose: 100.0 mg/kg/injection, schedule: Q01DX009 (ip), vehicle: other
  T/C: 104 % of control
dose: 200.0 mg/kg/injection, schedule: Q01DX009 (ip), vehicle: other
  T/C: 100 % of control

## O=C1c2ccccc2C(=O)N1CCC(=O)n1ccnc1
dose: 17.5 mg/kg/injection, schedule: Q01DX005 (ip), vehicle: Klucel (hydroxypropylcellulose) (HPC)
  T/C: 104 % of control
dose: 35.0 mg/kg/injection, schedule: Q01DX005 (ip), vehicle: Klucel (hydroxypropylcellulose) (HPC)
  T/C: 97 % of control
dose: 70.0 mg/kg/injection, schedule: Q01DX005 (ip), vehicle: Klucel (hydroxypropylcellulose) (HPC)
  T/C: 99 % of control

## C[N+](C)([O-])c1ccc(C(=O)C2CCCCC2)cc1
dose: 100.0 mg/kg/injection, schedule: Q04DX002 (ip), vehicle: saline
  T/C: 101 % of control
dose: 200.0 mg/kg/injection, schedule: Q04DX002 (ip), vehicle: saline
  T/C: 99 % of control
dose: 400.0 mg/kg/injection, schedule: Q04DX002 (ip), vehicle: saline
  T/C: 103 % of control

## CCCCCC(CN(C)C)C(/C=C/c1ccccc1Cl)=N\O (stereo not drawn)
dose: 50.0 mg/kg/injection, schedule: Q01DX009 (ip), vehicle: saline
  T/C: 106 % of control
dose: 100.0 mg/kg/injection, schedule: Q01DX009 (ip), vehicle: saline
  T/C: 112 % of control

## CC(C)(C)CC(C)(C)C/C=C/C[N+](C)(C)C/C=C/CC(C)(C)CC(C)(C)C
dose: 12.5 mg/kg/injection, schedule: Q04DX002 (ip), vehicle: saline
  T/C: 102 % of control
dose: 25.0 mg/kg/injection, schedule: Q04DX002 (ip), vehicle: saline
  T/C: 95 % of control

## CC(C)(C)C1=NC(c2ccccc2)N2C(c3ccccc3)NC(c3ccccc3)C1C2c1ccccc1 (stereo not drawn)
dose: 50.0 mg/kg/injection, schedule: Q01DX009 (ip), vehicle: saline with Tween-80
  T/C: 100 % of control
[4]
  T/C: 93 % of control
[5]
  T/C: 91 % of control

## CCC(C)P(=O)(N1CC1C)N1CC1C (stereo not drawn)
dose: 1.5 mg/kg/injection, schedule: Q01DX009 (ip), vehicle: saline
  T/C: 104 % of control
dose: 3.0 mg/kg/injection, schedule: Q01DX009 (ip), vehicle: saline
  T/C: 109 % of control
dose: 6.0 mg/kg/injection, schedule: Q01DX009 (ip), vehicle: saline
  T/C: 109 % of control
dose: 12.5 mg/kg/injection, schedule: Q04DX003 (ip), vehicle: saline
  T/C: 95 % of control
dose: 25.0 mg/kg/injection, schedule: Q04DX003 (ip), vehicle: saline
  T/C: 95 % of control
dose: 50.0 mg/kg/injection, schedule: Q04DX003 (ip), vehicle: saline
  T/C: 113 % of control

## Cn1c(=O)c2c(ncn2-c2ccc(N)cc2Cl)n(C)c1=O
dose: 25.0 mg/kg/injection, schedule: Q01DX005 (ip), vehicle: distilled water + alcohol
  T/C: 100 % of control
dose: 50.0 mg/kg/injection, schedule: Q01DX005 (ip), vehicle: distilled water + alcohol
  T/C: 100 % of control and 101 % of control
dose: 100.0 mg/kg/injection, schedule: Q01DX005 (ip), vehicle: distilled water + alcohol
  T/C: 104 % of control
dose: 200.0 mg/kg/injection, schedule: Q01DX005 (ip), vehicle: distilled water + alcohol
  T/C: 99 % of control

## NC(=O)c1c[se]c(C2OC(CO)C(O)C2O)n1 (stereo not drawn)
dose: 25.0 mg/kg/injection, schedule: Q01DX005 (ip), vehicle: saline
  T/C: 154 % of control

## CC(C)(C)NCC(O)CCl (stereo not drawn)
[6]
  T/C: 113 % of control
[7]
  T/C: 99 % of control
[8]
  T/C: 99 % of control
[9]
  T/C: 103 % of control

## COC(=O)c1ccc(O)c(O)c1
[4]
  T/C: 104 % of control
[5]
  T/C: 100 % of control
dose: 400.0 mg/kg/injection, schedule: Q01DX009 (ip), vehicle: saline with Tween-80
  T/C: 100 % of control

## CCCCOC(=O)NCNC(=O)OCCCC
dose: 50.0 mg/kg/injection, schedule: Q01DX009 (ip), vehicle: Klucel (hydroxypropylcellulose) (HPC)
  T/C: 99 % of control
dose: 100.0 mg/kg/injection, schedule: Q01DX009 (ip), vehicle: Klucel (hydroxypropylcellulose) (HPC)
  T/C: 100 % of control
dose: 200.0 mg/kg/injection, schedule: Q01DX009 (ip), vehicle: Klucel (hydroxypropylcellulose) (HPC)
  T/C: 94 % of control

## CCCCCCC(=O)CCCCCCCCCCCCC(=O)OC
[1]
  T/C: 100 % of control
[2]
  T/C: 100 % of control
[3]
  T/C: 100 % of control

## CC1(N2CCCCC2)C(=O)NC(=O)N(C2CCCCC2)C1=O (stereo not drawn)
dose: 60.0 mg/kg/injection, schedule: Q01DX005 (ip), vehicle: Klucel (hydroxypropylcellulose) (HPC)
  T/C: 88 % of control
dose: 120.0 mg/kg/injection, schedule: Q01DX005 (ip), vehicle: Klucel (hydroxypropylcellulose) (HPC)
  T/C: 95 % of control
dose: 240.0 mg/kg/injection, schedule: Q01DX005 (ip), vehicle: Klucel (hydroxypropylcellulose) (HPC)
  T/C: 89 % of control

## COc1ccc(OC)c(NC(=O)Nc2nccs2)c1
dose: 22.5 mg/kg/injection, schedule: Q01DX009 (ip), vehicle: Klucel (hydroxypropylcellulose) (HPC)
  T/C: 99 % of control
dose: 45.0 mg/kg/injection, schedule: Q01DX009 (ip), vehicle: Klucel (hydroxypropylcellulose) (HPC)
  T/C: 100 % of control
dose: 90.0 mg/kg/injection, schedule: Q01DX009 (ip), vehicle: Klucel (hydroxypropylcellulose) (HPC)
  T/C: 97 % of control
dose: 180.0 mg/kg/injection, schedule: Q01DX009 (ip), vehicle: Klucel (hydroxypropylcellulose) (HPC)
  T/C: 92 % of control

## ClCCN1c2ccccc2Sc2ccc3ccccc3c21
dose: 50.0 mg/kg/injection, schedule: Q01DX005 (ip), vehicle: saline with Tween-80
  T/C: 89 % of control
dose: 100.0 mg/kg/injection, schedule: Q01DX005 (ip), vehicle: saline with Tween-80
  T/C: 93 % of control

## CC(=O)c1cc2c(cc1Br)OCO2
dose: 100.0 mg/kg/injection, schedule: Q01DX001 (ip), vehicle: Klucel (hydroxypropylcellulose) (HPC)
  T/C: 100 % of control
dose: 200.0 mg/kg/injection, schedule: Q01DX001 (ip), vehicle: Klucel (hydroxypropylcellulose) (HPC)
  T/C: 102 % of control
dose: 400.0 mg/kg/injection, schedule: Q01DX001 (ip), vehicle: Klucel (hydroxypropylcellulose) (HPC)
  T/C: 108 % of control

## COc1ccc2c(=O)c(Cc3c(-c4ccccc4)[nH]c4ccccc34)coc2c1
dose: 60.0 mg/kg/injection, schedule: Q01DX005 (ip), vehicle: saline with Tween-80
  T/C: 98 % of control
dose: 120.0 mg/kg/injection, schedule: Q01DX005 (ip), vehicle: saline with Tween-80
  T/C: 91 % of control
dose: 240.0 mg/kg/injection, schedule: Q01DX005 (ip), vehicle: saline with Tween-80
  T/C: 90 % of control

## CCC[CH2][Sn]1([CH2]CCC)[O]C(=O)c2c(Cl)c(Cl)c(Cl)c(Cl)c2C(=O)[O]1
dose: 1.56 mg/kg/injection, schedule: Q01DX005 (ip), vehicle: saline with Tween-80
  T/C: 110 % of control and 115 % of control
dose: 3.13 mg/kg/injection, schedule: Q01DX005 (ip), vehicle: saline with Tween-80
  T/C: 119 % of control and 120 % of control
dose: 6.25 mg/kg/injection, schedule: Q01DX005 (ip), vehicle: saline with Tween-80
  T/C: 119 % of control and 120 % of control

## O=NN(CCSCCO)C(=O)NC1CCCCC1
dose: 6.25 mg/kg/injection, schedule: Q01DX009 (ip), vehicle: water
  T/C: 101 % of control
dose: 12.5 mg/kg/injection, schedule: Q01DX009 (ip), vehicle: water
  T/C: 100 % of control
[6]
  T/C: 102 % of control
[7]
  T/C: 109 % of control
[8]
  T/C: 110 % of control
[9]
  T/C: 107 % of control
